Data as given in ChEMBL document CHEMBL6153062, “Design, Synthesis, and Unprecedented Interactions of Covalent Dipeptide-Based Inhibitors of SARS-CoV-2 Main Protease and Its Variants Displaying Potent Antiviral Activity” (J Med Chem, 2025).

Columns and labels:
[1] = Inhibition of SARS-CoV-2 MPro S144Y mutant; parameters: species or system Severe acute respiratory syndrome coronavirus 2
[2] = Inhibition of SARS-CoV-2 MPro S144A mutant; parameters: species or system Severe acute respiratory syndrome coronavirus 2
[3] = Inhibition of SARS-CoV-2 MPro deltaP168 mutant; parameters: species or system Severe acute respiratory syndrome coronavirus 2
[4] = Inhibition of SARS-CoV-2 MPro S144M mutant; parameters: species or system Severe acute respiratory syndrome coronavirus 2
[5] = Inhibition of SARS-CoV-2 MPro M165T mutant; parameters: species or system Severe acute respiratory syndrome coronavirus 2
[6] = Inhibition of SARS-CoV-2 MPro A173 V mutant; parameters: species or system Severe acute respiratory syndrome coronavirus 2
[7] = Inhibition of SARS-CoV-2 MPro E166 V mutant; parameters: species or system Severe acute respiratory syndrome coronavirus 2
[8] = Inhibition of SARS-CoV-2 MPro H172F mutant; parameters: species or system Severe acute respiratory syndrome coronavirus 2
[9] = Inhibition of SARS-CoV-2 MPro S144F mutant; parameters: species or system Severe acute respiratory syndrome coronavirus 2
[10] = Inhibition of SARS-CoV-2 MPro L50F/E166A/L167F mutant; parameters: species or system Severe acute respiratory syndrome coronavirus 2
[11] = Inhibition of SARS-CoV-2 MPro Q189E mutant; parameters: species or system Severe acute respiratory syndrome coronavirus 2
[12] = system: Severe acute respiratory syndrome coronavirus 2; assay: Selectivity index, ratio of IC50 for inhibition of SARS-CoV-2 MPro Q192S mutant to IC50 for inhibition of wild type SARS-CoV-2 MPro
[13] = system: Severe acute respiratory syndrome coronavirus 2; assay: Selectivity index, ratio of IC50 for inhibition of SARS-CoV-2 MPro M165T mutant to IC50 for inhibition of wild type SARS-CoV-2 MPro
[14] = system: Severe acute respiratory syndrome coronavirus 2; assay: Selectivity index, ratio of IC50 for inhibition of SARS-CoV-2 MPro S144Y mutant to IC50 for inhibition of wild type SARS-CoV-2 MPro
[15] = system: Severe acute respiratory syndrome coronavirus 2; assay: Selectivity index, ratio of IC50 for inhibition of SARS-CoV-2 MPro H172Q mutant to IC50 for inhibition of wild type SARS-CoV-2 MPro
[16] = Inhibition of SARS-CoV-2 MPro Q192S mutant; parameters: species or system Severe acute respiratory syndrome coronavirus 2
[17] = Inhibition of SARS-CoV-2 MPro G143S mutant; parameters: species or system Severe acute respiratory syndrome coronavirus 2
[18] = system: Severe acute respiratory syndrome coronavirus 2; assay: Selectivity index, ratio of IC50 for inhibition of SARS-CoV-2 MPro L50F/E166A/L167F mutant to IC50 for inhibition of wild type SARS-CoV-2 MPro
[19] = system: Severe acute respiratory syndrome coronavirus 2; assay: Selectivity index, ratio of IC50 for inhibition of SARS-CoV-2 MPro Q189E mutant to IC50 for inhibition of wild type SARS-CoV-2 MPro
[20] = system: Severe acute respiratory syndrome coronavirus 2; assay: Selectivity index, ratio of IC50 for inhibition of SARS-CoV-2 MPro E166 V mutant to IC50 for inhibition of wild type SARS-CoV-2 MPro
[21] = system: Severe acute respiratory syndrome coronavirus 2; assay: Selectivity index, ratio of IC50 for inhibition of SARS-CoV-2 MPro S144M mutant to IC50 for inhibition of wild type SARS-CoV-2 MPro
[22] = Inhibition of SARS-CoV-2 MPro S144G mutant; parameters: species or system Severe acute respiratory syndrome coronavirus 2
[23] = system: Severe acute respiratory syndrome coronavirus 2; assay: Selectivity index, ratio of IC50 for inhibition of SARS-CoV-2 MPro S144F mutant to IC50 for inhibition of wild type SARS-CoV-2 MPro
[24] = system: Severe acute respiratory syndrome coronavirus 2; assay: Selectivity index, ratio of IC50 for inhibition of SARS-CoV-2 MPro deltaP168 mutant to IC50 for inhibition of wild type SARS-CoV-2 MPro
[25] = system: Severe acute respiratory syndrome coronavirus 2; assay: Selectivity index, ratio of IC50 for inhibition of SARS-CoV-2 MPro H172F mutant to IC50 for inhibition of wild type SARS-CoV-2 MPro
[26] = system: Severe acute respiratory syndrome coronavirus 2; assay: Selectivity index, ratio of IC50 for inhibition of SARS-CoV-2 MPro H172Y mutant to IC50 for inhibition of wild type SARS-CoV-2 MPro
[27] = system: Severe acute respiratory syndrome coronavirus 2; assay: Selectivity index, ratio of IC50 for inhibition of SARS-CoV-2 MPro S144G mutant to IC50 for inhibition of wild type SARS-CoV-2 MPro
[28] = system: Severe acute respiratory syndrome coronavirus 2; assay: Selectivity index, ratio of IC50 for inhibition of SARS-CoV-2 MPro G143S mutant to IC50 for inhibition of wild type SARS-CoV-2 MPro
[29] = Inhibition of SARS-CoV-2 MPro H172Y mutant; parameters: species or system Severe acute respiratory syndrome coronavirus 2
[30] = system: Severe acute respiratory syndrome coronavirus 2; assay: Selectivity index, ratio of IC50 for inhibition of SARS-CoV-2 MPro A173 V mutant to IC50 for inhibition of wild type SARS-CoV-2 MPro
[31] = Inhibition of SARS-CoV-2 MPro H172Q mutant; parameters: species or system Severe acute respiratory syndrome coronavirus 2
[32] = system: Severe acute respiratory syndrome coronavirus 2; assay: Selectivity index, ratio of IC50 for inhibition of SARS-CoV-2 MPro S144A mutant to IC50 for inhibition of wild type SARS-CoV-2 MPro

SMILES | IC50 [1] [nM] | IC50 [2] [nM] | IC50 [3] [nM] | IC50 [4] [nM] | IC50 [5] [nM] | IC50 [6] [nM] | IC50 [7] [nM] | IC50 [8] [nM] | IC50 [9] [nM] | IC50 [10] [nM] | IC50 [11] [nM] | IC50 [16] [nM] | IC50 [17] [nM] | IC50 [22] [nM] | IC50 [29] [nM] | IC50 [31] [nM] | other results
CC(C)(C)[C@H](NC(=O)C(F)(F)F)C(=O)N1C[C@H]2[C@@H]([C@H]1C(=O)N[C@H](C#N)C[C@@H]1CCNC1=O)C2(C)C | 203 | 41.7 | 47 | 426 | 181 | 85.5 | 2620 | 1700 | 176 | 512 | 199 | – | – | – | – | – | –
C=CC(=O)[C@H](Cc1cccc(Cl)c1)NC(=O)[C@H](CC(C)C)NC(=O)CSc1ccccc1 | 244 | 42.5 | 65.4 | 414 | 260 | 82.4 | 236 | 146 | 219 | 239 | 211 | 261 | 155 | 254 | 297 | 159 | Ratio IC50 [12]: 22.3; Ratio IC50 [13]: 22.2; Ratio IC50 [14]: 20.9; Ratio IC50 [15]: 13.6; Ratio IC50 [18]: 20.4; Ratio IC50 [19]: 18; Ratio IC50 [20]: 20.2; Ratio IC50 [21]: 35.4; Ratio IC50 [23]: 18.7; Ratio IC50 [24]: 5.6; Ratio IC50 [25]: 12.5; Ratio IC50 [26]: 25.4; Ratio IC50 [27]: 21.7; Ratio IC50 [28]: 13.2; Ratio IC50 [30]: 7; Ratio IC50 [32]: 3.6
C=CC(=O)[C@H](Cc1ccccc1)NC(=O)[C@H](CC(C)C)NC(=O)COc1ccc(Cl)cc1Cl | 497 | 328 | 368 | 745 | 1390 | 140 | 409 | 313 | 636 | 392 | 714 | 488 | 230 | 472 | 1280 | 390 | –
